This is an account of results in patent US9833497B2, “Human originated EGF domain proteins and use of the same” (CHENGDU SOURCEBIO LIMITED-LIABILITY COMPANY, priority 2013, dated 2017).

Holding throughout (assay type): cell-based
In experiment [1] the test system is E. coli DH5α. The experiment can be described thus: Antibacterial activity: MIC and growth curve against E. coli DH5α in 96-well plate. Conditions: minimal inhibitory concentration against E. coli DH5α; 96-well plate, 5×10^5 CFU/mL, 37° C., judged after 8 h. Summed up: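 Log-phase bacteria (OD600 ~0.5) resuspended in LB at 5×10^5 CFU/mL, exposed to recombinant protein at 50, 25, 12.5 μg/mL final in triplicate, 37 °C shaking at 175 rpm. OD600 read every 30 min; MIC is lowest concentration showing no growth.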

In experiment [2] the test system is E. coli BL21. The experiment is described as follows: MIC against Gram-negative bacteria: E. coli BL21. The following applies: for MIC (μg/mL) E. coli BL21: 96-well plate, 37° C., 10 h. Summed up: (§1)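 Bacteria grown in LB at 37° C to McFarland 0.5, resuspended and seeded at 5×10^5 CFU/mL in 96-well plates. Purified human EGF-domain proteins two-fold serially diluted, triplicate wells; cultured at 37° C, shaking 175 rpm. MIC = lowest protein concentration with no growth.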

The subject of experiment [3] is Pseudomonas aeruginosa. The experiment is described as follows: MIC against Gram-negative bacteria: Pseudomonas aeruginosa. The following applies: for MIC (μg/mL) P. aeruginosa: 96-well plate, 37° C., 10 h. Summed up: as §1
For experiment [4], the system named is Klebsiella pneumonia. The experiment is described as follows: MIC against Gram-negative bacteria: Klebsiella pneumonia. The following applies: for MIC (μg/mL) K. pneumonia: 96-well plate, 37° C., 10 h. Summed up: as §1
The subject of experiment [5] is Enterobacter cloacae. The experiment is described as follows: MIC against Gram-negative bacteria: Enterobacter cloacae. Conditions: for MIC (μg/mL) E. cloacae: 96-well plate, 37° C., 10 h. Summed up: as §1
Experiment [6] deals with Aeromonas hydrophila. The experiment can be described thus: MIC against Gram-negative bacteria: Aeromonas hydrophila. The following applies: for MIC (μg/mL) A. hydrophila: 96-well plate, 37° C., 10 h. Summed up: as §1
In experiment [7] the test system is Citrobacter diversus. The experiment can be described thus: MIC against Gram-negative bacteria: Citrobacter diversus. Conditions: for MIC (μg/mL) C. diversus: 96-well plate, 37° C., 10 h. Summed up:
as §1

Experiment [8] relates to Moraxella catarrhalis. The experiment is described as follows: MIC against Gram-negative bacteria: Moraxella catarrhalis. Conditions: for MIC (μg/mL) M. catarrhalis: 96-well plate, 37° C., 10 h. Summed up: as §1
In experiment [9] the test system is Proteus mirabilis. The experiment can be described thus: MIC against Gram-negative bacteria: Proteus mirabilis. Conditions: for MIC (μg/mL) P. mirabilis: 96-well plate, 37° C., 10 h. Summed up: as §1
The subject of experiment [10] is Proteus vulgaris. The experiment is described as follows: MIC against Gram-negative bacteria: Proteus vulgaris. The following applies: for MIC (μg/mL) P. vulgaris: 96-well plate, 37° C., 10 h. In outline:
as §1

Experiment [11] deals with Serratia marcescens. The experiment is described as follows: MIC against Gram-negative bacteria: Serratia marcescens. The following applies: for MIC (μg/mL) S. marcescens: 96-well plate, 37° C., 10 h. Summed up:
as §1

The mark [12] stands for this setting: Pseudomonas aeruginosa, 5×10^5 CFU/mL.
Setting [13] is: Klebsiella pneumonia, 5×10^5 CFU/mL.
Where [14] appears, read: Enterobacter cloacae, 5×10^5 CFU/mL.
The mark [15] stands for this setting: Aeromonas hydrophila, 5×10^5 CFU/mL.
Where [16] appears, read: Citrobacter diversus, 5×10^5 CFU/mL.
The mark [17] stands for this setting: Moraxella catarrhalis, 5×10^5 CFU/mL.
The mark [18] stands for this setting: Proteus mirabilis, 5×10^5 CFU/mL.
Setting [19] is: Proteus vulgaris, 5×10^5 CFU/mL.
Where [20] appears, read: Serratia marcescens, 5×10^5 CFU/mL.
[21] abbreviates: 10 h cultivation at 37° C., 5×10^5 CFU/mL, two-fold serial dilution.

One may read the MIC as the least concentration at which growth counts as inhibited. Higher therefore signals a less susceptible organism. In experiment [1], “PRT134 (IKDRCLPNYCEHGGSCSQSWTTFYCNCSDTSYTGATCH; listed as Homo sapiens)” registered an MIC of 12.5 µg/mL. Moreover, the “MIC (μg/mL) E. coli BL21” value in experiment [2] (E. coli BL21, 5×10^5 CFU/mL) came out at 12.5 µg/mL. Besides, the “MIC (μg/mL) P. aeruginosa” value in experiment [3] (setting [12]) stood at 12.5 µg/mL. The “MIC (μg/mL) K. pneumonia” value in experiment [4] (setting [13]) is 25 µg/mL. Further, in [5] (setting [14]), the “MIC (μg/mL) E. cloacae” value stood at 12.5 µg/mL. Besides, in experiment [6] (setting [15]), the “MIC (μg/mL) A. hydrophila” value worked out at 25 µg/mL. For the same substance, the “MIC (μg/mL) C. diversus” value in experiment [7] (setting [16]) was found to be 25 µg/mL. In experiment [8] (setting [17]), the “MIC (μg/mL) M. catarrhalis” value was determined as 12.5 µg/mL. Further, the “MIC (μg/mL) P. mirabilis” value in experiment [9] (setting [18]) came out at 100 µg/mL. Besides, in experiment [10] (setting [19]), the “MIC (μg/mL) P. vulgaris” value came to 25 µg/mL. Moreover, the “MIC (μg/mL) S. marcescens” value in [11] (setting [20]) turned out to be 12.5 µg/mL.

Turning to “PRT898 (NNNECESNPCVNGGTCKDMTSGYVCTCREGFSGPNCQ; listed as Homo sapiens)”, the MIC was found to be 25 µg/mL in [1]; 50 µg/mL in [2] (E. coli BL21, 10 h cultivation at 37° C.); 25 µg/mL in experiment [3] (P. aeruginosa, 10 h cultivation at 37° C.); 12.5 µg/mL in [4] (K. pneumonia, 10 h cultivation at 37° C.); 50 µg/mL in [5] (E. cloacae, 10 h cultivation at 37° C.); 12.5 µg/mL in experiment [6] (A. hydrophila, 10 h cultivation at 37° C.). In addition, the MIC in experiment [7] (C. diversus, 10 h cultivation at 37° C.) was found to be 12.5 µg/mL; in experiment [8] (M. catarrhalis, 10 h cultivation at 37° C.) it was 12.5 µg/mL; in [9] (P. mirabilis, 10 h cultivation at 37° C.) it was 12.5 µg/mL; in experiment [10] (P. vulgaris, 10 h cultivation at 37° C.), 25 µg/mL; in [11] (S. marcescens, 10 h cultivation at 37° C.) it was 12.5 µg/mL.

Turning to “PRT1464 (CNCDKTGTINGSLLCNKSTGQCPCKLGVTGLRCNQCEPHRYNLTIDNFQHCQM; listed as Homo sapiens)”, in [1], the MIC turned out to be 12.5 µg/mL. For the same substance, in experiment [2] (E. coli BL21, 5×10^5 CFU/mL, 10 h cultivation at 37° C.), the “MIC against E. coli BL21” value is 25 µg/mL. In addition, the “MIC against P. aeruginosa” value in experiment [3] (Pseudomonas aeruginosa, 5×10^5 CFU/mL, 10 h cultivation at 37° C.) turned out to be 12.5 µg/mL. Also, the “MIC against K. pneumonia” value in [4] (Klebsiella pneumonia, 5×10^5 CFU/mL, 10 h cultivation at 37° C.) was determined as 12.5 µg/mL. Also, in [5] (Enterobacter cloacae, 5×10^5 CFU/mL, 10 h cultivation at 37° C.), the “MIC against E. cloacae” value is 12.5 µg/mL. For the same substance, in experiment [6] (Aeromonas hydrophila, 5×10^5 CFU/mL, 10 h cultivation at 37° C.), the “MIC against A. hydrophila” value stood at 12.5 µg/mL. Moreover, the “MIC against C. diversus” value in experiment [7] (Citrobacter diversus, 5×10^5 CFU/mL, 10 h cultivation at 37° C.) stood at 12.5 µg/mL. The “MIC against M. catarrhalis” value in experiment [8] (Moraxella catarrhalis, 5×10^5 CFU/mL, 10 h cultivation at 37° C.) turned out to be 12.5 µg/mL. The “MIC against P. mirabilis” value in experiment [9] (Proteus mirabilis, 5×10^5 CFU/mL, 10 h cultivation at 37° C.) came to 12.5 µg/mL. The “MIC against P. vulgaris” value in experiment [10] (Proteus vulgaris, 5×10^5 CFU/mL, 10 h cultivation at 37° C.) amounted to 25 µg/mL. Further, the “MIC against S. marcescens” value in experiment [11] (Serratia marcescens, 5×10^5 CFU/mL, 10 h cultivation at 37° C.) worked out at 50 µg/mL.

As to “PRT15 (GDHPCLPNPCHGGAPCQNLEAGRFHCQCPPGRVGPTCA; listed as Homo sapiens)”, the MIC in experiment [1] came to 25 µg/mL. The “MIC (μg/mL) E. coli BL21” value in experiment [2] (E. coli BL21, 5×10^5 CFU/mL) was 50 µg/mL. For the same substance, the “MIC (μg/mL) P. aeruginosa” value in experiment [3] (setting [12]) amounted to 25 µg/mL. Moreover, in [4] (setting [13]), the “MIC (μg/mL) K. pneumonia” value was 12.5 µg/mL. The “MIC (μg/mL) E. cloacae” value in experiment [5] (setting [14]) came out at 50 µg/mL. Further, the “MIC (μg/mL) A. hydrophila” value in experiment [6] (setting [15]) was 12.5 µg/mL. In experiment [7] (setting [16]), the “MIC (μg/mL) C. diversus” value was 25 µg/mL. Moreover, in [8] (setting [17]), the “MIC (μg/mL) M. catarrhalis” value was determined as 12.5 µg/mL. The “MIC (μg/mL) P. mirabilis” value in [9] (setting [18]) stood at 12.5 µg/mL. The “MIC (μg/mL) P. vulgaris” value in [10] (setting [19]) was 12.5 µg/mL. In addition, in experiment [11] (setting [20]), the “MIC (μg/mL) S. marcescens” value is 25 µg/mL.

The substance “PRT1115 (PTLPCEANPCLNGGTCRAAGGVSECICNARFSGQFCE; listed as Homo sapiens)” gave an MIC in experiment [1] of 50 µg/mL. Further, the “MIC E. coli BL21” value in experiment [2] (setting [21]) came to 25 µg/mL. Further, the “MIC P. aeruginosa” value in experiment [3] (setting [21]) was found to be 12.5 µg/mL. In experiment [4] (setting [21]), the “MIC K. pneumonia” value was 50 µg/mL. The “MIC E. cloacae” value in [5] (setting [21]) stood at 12.5 µg/mL. Moreover, the “MIC A. hydrophila” value in [6] (setting [21]) stood at 12.5 µg/mL. Besides, the “MIC C. diversus” value in [7] (setting [21]) came to 12.5 µg/mL. Also, in [8] (setting [21]), the “MIC M. catarrhalis” value came out at 12.5 µg/mL. Moreover, in [9] (setting [21]), the “MIC P. mirabilis” value was determined as 12.5 µg/mL. In experiment [10] (setting [21]), the “MIC P. vulgaris” value worked out at 12.5 µg/mL. Moreover, in experiment [11] (setting [21]), the “MIC S. marcescens” value was 12.5 µg/mL.
